Results on one compound are retold here after patent US20130123135A1, “Methods To Identify Modulators of TAS2R48 Receptors” (priority 2010, published 2013).

The test system of the assay is Sham transfected HEK293T/G16gust44 cells. As for the experimental part:
The above procedure was also carried out for HEK293T/G16gust44 cells, formed as described in WO 2004/055048 with the exception that no DNA was added during the process. These cells are termed Sham transfected cells.
On day 0, the HEK293T cells formed as described in example 2, were seeded in antibiotic-free growth medium (standard DMEM with 10% (v/v) heat-inactivated fetal bovine serum, 2 mM L-glutamine […], 100 units/ml penicillin, and 100 [g/ml streptomycin) into black wall/clear bottom 96-well plates, coated with poly(ethylenimine) (0.005% v/v) at a concentration of 15,000 cells per well and incubated for 48 hours in humidified atmosphere (37° C., 5% CO2).
Prior to performing the assay, the growth medium was discarded and the cells were left in a humidified atmosphere (37° C., 5% CO2) for 1 hour with 50 μl of loading buffer consisting of 1.5 μM Fluo-4 AM and […] probenicid (Sigma-Aldrich, St. Louis, Mo., US) in DMEM.
Following this the 96-well plate was washed 5 times with 100 μl of assay buffer (130 mM NaCl, 5 mM KCl, 10 mM 4-(2-hydroxyethyl)-1-piperazineethanesulfonic acid (HEPES), 2 mM CaCl2, and 5 mM dextrose, pH 7.4) per well, using an automated plate washer (BioTek).
The plate was then further incubated for 30 minutes at room temperature in the dark to allow for complete de-esterification of the Fluo-4. Afterwards the plate was washed 5 times with 100 μl of assay buffer per well, and reconstituted with 100 μl of assay buffer per well.
Cyclamate solutions ranging in concentration from 250 mM to 800 mM were prepared in assay buffer.
To test receptor activation 20 μl of one of these cyclamate test solutions was added to the assay buffer of at least one well of the 96 well plate. This step was repeated until all cyclamate solutions of differing concentrations had been added to at least one well. Care was taken to ensure that only one cyclamate solution was added per well. The resulting cyclamate concentrations in the well plates ranged in concentration from 25 mM to 80 mM (This is due to the dilution of the cyclamate solution in the assay buffer present in the well).
For assay reading, the plate was placed in a Fluorometric Imaging Plate Reader (FLIPR) (FLIPR-TETRA™, Molecular Devices, Sunnyvale, Calif., US).
For each well of the plate fluorescence was continuously monitored for 20 seconds to give a signal baseline (averaged to give F0) prior to cyclamate addition and for 120 seconds after cyclamate addition. The change in signal divided by F0 gives ΔF/F0 indicated in the table, with ΔF being the maximum signal occurring within the 120 seconds minus the minimum signal (occurring within the 120 seconds after cyclamate addition.
As a control the above procedure was also carried out for the sham transfected cells formed as described in example 2.

Read-outs that look alike come from different tables or passages of the source.

For `O=S(=O)(O)NC1CCCCC1` [Cyclamate, cyclamate], the “Cyclamate Average ΔF/F0, Sham Transfected” value was 0.186 (cyclamate 25 mM in well); 0.182 (cyclamate 30 mM in well); 0.198 (cyclamate 35 mM in well); 0.204 (cyclamate 40 mM in well); 0.194 (cyclamate 45 mM in well); 0.2 (cyclamate 50 mM in well). Further, the “Cyclamate Average ΔF/F0, Sham Transfected” value is, setting by setting: (cyclamate 55 mM in well) 0.182; (cyclamate 60 mM in well) 0.16; (cyclamate 65 mM in well) 0.17; (cyclamate 70 mM in well) 0.14; (cyclamate 75 mM in well) 0.11; (cyclamate 80 mM in well) 0.178.
